Assay [1] deals with T1, human D2 receptor (Homo sapiens, UniProt P14416).
T1 construct: expressed in transfected cells
Nature of the assay: [3H]spiperone binding assay, dopamine D2-receptor affinity (HEK293 cells stably expressing D2 receptors). The protocol: Source of the dopamine-D2-receptors was cell line HEK293 which expresses the D2 receptors stably. […] All substances were evaluated in 3 independent competition experiments in six concentrations (each in triplicate). The Ki-values were calculated from the IC50-values according to Cheng-Prusoff as described in detail in [23].

Assay [2] concerns the target T1, human D2 receptor. Also on record: method as in PMID 12570798. To be noted: D2-receptor antagonists, literature affinity; cited from earlier work.
The mark [3] stands for this setting: ratio of Ki values at the D2 receptor.

Where two headings read alike, the source gives them in different places.

A word on the Ki: it is the equilibrium dissociation constant of an inhibitor or competing ligand from its target.

T1 sequence (P14416 whole entry): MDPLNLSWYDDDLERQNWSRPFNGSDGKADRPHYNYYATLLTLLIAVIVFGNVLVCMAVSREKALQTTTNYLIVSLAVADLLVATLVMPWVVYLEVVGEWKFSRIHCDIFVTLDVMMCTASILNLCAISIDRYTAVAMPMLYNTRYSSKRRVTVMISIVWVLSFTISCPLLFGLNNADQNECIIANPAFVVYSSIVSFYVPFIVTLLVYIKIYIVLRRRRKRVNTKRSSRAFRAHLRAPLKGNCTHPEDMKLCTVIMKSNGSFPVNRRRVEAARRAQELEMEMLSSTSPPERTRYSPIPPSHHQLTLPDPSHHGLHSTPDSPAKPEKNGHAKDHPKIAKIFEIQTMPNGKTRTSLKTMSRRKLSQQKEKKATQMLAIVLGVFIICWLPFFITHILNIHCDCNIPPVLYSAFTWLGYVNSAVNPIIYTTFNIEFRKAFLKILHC

`C=CCN1CCC[C@H]1CNC(=O)c1ccc([Si](F)(C(C)(C)C)C(C)(C)C)cc1` [SiFA-DDMFP, 4c, (S)-N-((1-Allylpyrrolidine-2-yl)methyl)-4-(di-tert-butylfluorosilyl) benzamide] had a Ki in assay [1] of 62.7 ± 16.9 nM.

`C=CCN1CCC[C@H]1CNC(=O)c1cc(CCCF)cc(OC)c1OC` [Fallypride, fallypride, reference compound]: in assay [2], the D2-receptor affinity range entry is “picomolar”. The Ki in assay [1] (D2-receptor affinity, [3H]spiperone competition, 3 independent experiments, Ki from IC50 by Cheng-Prusoff, read-out: Ki (nM ± SEM)) amounted to 0.0965 ± 0.0153 nM.

For `CCN1CCC[C@H]1CNC(=O)c1c(O)c(Cl)cc(Cl)c1OC` [Raclopride, raclopride], in assay [2], the D2-receptor affinity range result is recorded as “nanomolar”.

For the compound `C=CCN1CCC[C@H]1CNC(=O)c1cc([Si](F)(C(C)(C)C)C(C)(C)C)cc(OC)c1OC` [SiFA-FP, 4b, (S)-N-((1-Allylpyrrolidine-2-yl)methyl)-5-(di-tert-butylfluorosilyl)-2,3-dimethoxybenzamide], the Ki in assay [1] turned out to be 33 ± 7.6 nM. For the same compound, the “factor by which affinity is reduced compared to fallypride (1)” value in assay [1] (setting [3]) is listed as 342.

`C=CCN1CCC[C@H]1CNC(=O)c1cc([Si](F)(C(C)(C)C)C(C)(C)C)ccc1OC` [SiFA-DMFP, 4a, (S)-N-((1-Allylpyrrolidine-2-yl)methyl)-5-(di-tert-butylfluorosilyl)-2-methoxybenzamide] yielded a Ki in assay [1] of 13.6 ± 4.3 nM. In assay [1] (setting [3]), the “factor by which affinity is reduced compared to desmethoxyfallypride (2)” value was 22 and the “factor by which affinity is reduced compared to raclopride” value came out at 11.

`C=CCN1CCCC1CNC(=O)c1cc(CCCS[C@H]2CC(=O)N(c3ccc([Si](F)(C(C)(C)C)C(C)(C)C)cc3)C2=O)cc(OC)c1OC` (stereo partly drawn) [SiFA-M-FP, 5, (S)-N-((1-Allylpyrrolidin-2-yl)methyl)-5-(3-(1-(4-(di-tert-butylfluorosilyl)phenyl)-2,5-dioxopyrrolidin-3-ylthio)propyl)-2,3-dimethoxybenzamide] displayed a Ki in assay [1] of 4.21 ± 0.41 nM. Further, in assay [1] (setting [3]), the “factor by which affinity is reduced compared to fallypride (1)” value stood at 44 and the “factor by which affinity is reduced compared to raclopride” value is given as 3.5.

The values are drawn from article PMC6264418, “t-Bu2SiF-Derivatized D2-Receptor Ligands: The First SiFA-Containing Small Molecule Radiotracers for Target-Specific PET-Imaging” (Molecules, 2011).
